Tested on: c-Myc
Test: c-Myc immunofluorescence assay
Format: cell-based, human
Settings: A549 cells, 24 hours treatment, anti-c-Myc immunofluorescence
Outline: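 High-content imaging (20×) of PFA-fixed A549 cells immunostained for c-Myc with DAPI nuclei, after 24 h compound treatment at increasing concentrations. Per-cell c-Myc signal in identified cell regions was plotted against dose and fitted by logistic regression to give EC50.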

Row | SMILES | Myc Efficacy (−LogEC50)
1 | CNC(=O)c1ccc(-c2cn3c(n2)sc2cc(C(=O)NCC(C)OC)ccc23)cc1 (stereo not drawn) [compound 203, N-(2-methoxypropyl)-2-(4-(methylcarbamoyl)phenyl) benzo[d]imidazo[2,1-b]thiazole-7-carboxamide] | + (+ >3 and <5)
2 | CNC(=O)c1ccc(-c2cn3c(n2)sc2cc(C(=O)NCC4CCCO4)ccc23)cc1 (stereo not drawn) [compound 204, 2-(4-(methylcarbamoyl)phenyl)-N-((tetrahydrofuran-2-yl)methyl)benzo[d]imidazo [2,1-b]thiazole-7-carboxamide] | + (+ >3 and <5)
3 | CNC(=O)c1ccc(-c2cn3c(n2)sc2cc(C(=O)NC4CCCCC4N)ccc23)cc1 (stereo not drawn) [compound 205, N-(2-aminocyclohexyl)-2-(4-(methylcarbamoyl)phenyl) benzo[d]imidazo[2,1-b]thiazole-7-carboxamide] | + (+ >3 and <5)
4 | CNC(=O)c1ccc(-c2cn3c(n2)sc2cc(C(=O)NC4(C(F)(F)F)COC4)ccc23)cc1 [compound 206, 2-(4-(methylcarbamoyl)phenyl)-N-(3-(trifluoromethyl)oxetan-3-yl)benzo[d]imidazo[2,1-b]thiazole-7-carboxamide] | − (− ≤3)
5 | CNC(=O)c1ccc(-c2cn3c(n2)sc2cc(C(=O)N[C@H]4CCCN(C)C4)ccc23)cc1 [compound 207, (S)-2-(4-(methylcarbamoyl)phenyl)-N-(1-methylpiperidin-3-yl)benzo[d]imidazo[2,1-b]thiazole-7-carboxamide] | ++ (++ ≥5 and <6)
6 | CCC(CNC(=O)c1ccc2c(c1)sc1nc(-c3ccc(C(=O)NC)cc3)cn12)N(C)C (stereo not drawn) [compound 208, N-(2-(dimethylamino)butyl)-2-(4-(methylcarbamoyl)phenyl) benzo[d]imidazo[2,1-b]thiazole-7-carboxamide] | + (+ >3 and <5)
7 | CNC(=O)c1ccc(-c2cn3c(n2)sc2cc(C(=O)N[C@H]4CCN(C5CCOCC5)C4)ccc23)cc1 [compound 209, (S)-2-(4-(methylcarbamoyl)phenyl)-N-(1-(tetrahydro-2H-pyran-4-yl)pyrrolidin-3-yl)benzo[d]imidazo[2,1-b]thiazole-7-carboxamide] | + (+ >3 and <5)
8 | CNC(=O)c1ccc(-c2cn3c(n2)sc2cc(C(=O)NCC4(C)CCOC4)ccc23)cc1 (stereo not drawn) [compound 210, 2-(4-(methylcarbamoyl)phenyl)-N-((3-methyltetrahydrofuran-3-yl)methyl)benzo[d]imidazo [2,1-b]thiazole-7-carboxamide] | + (+ >3 and <5)
9 | CNC(=O)c1ccc(-c2cn3c(n2)sc2cc(C(=O)NCCOC(C)C)ccc23)cc1 [compound 211, N-(2-isopropalyethyl)-2-(4-(methylcarbamoyl)phenyl) benzo[d]imidazo[2,1-b]thiazole-7-carboxamide] | − (− ≤3)
10 | CNC(=O)c1ccc(-c2cn3c(n2)sc2cc(C(=O)NC[C@H]4CCCN(C)C4)ccc23)cc1 [compound 212, (R)-2-(4-(methylcarbamoyl)phenyl)-N-((1-methylpiperidin-3-yl)methyl)benzo[d]imidazo [2,1-b]thiazole-7-carboxamide] | + (+ >3 and <5)
11 | CNC(=O)c1ccc(-c2cn3c(n2)sc2cc(C(=O)N[C@@H](CO)c4ccccc4)ccc23)cc1 [compound 213, (R)-N-(2-hydroxy-1-phenylethyl)-2-(4-(methylcarbamoyl)phenyl) benzo[d]imidazo[2,1-b]thiazole-7-carboxamide] | + (+ >3 and <5)
12 | CCN1CCC[C@@H]1CNC(=O)c1ccc2c(c1)sc1nc(-c3ccc(C(=O)NC)cc3)cn12 [compound 214, (R)-N-((1-ethylpyrrolidin-2-yl)methyl)-2-(4-(methylcarbamoyl)phenyl) benzo[d]imidazo[2,1-b]thiazole-7-carboxamide] | + (+ >3 and <5)
13 | CCN1CCC(CNC(=O)c2ccc3c(c2)sc2nc(-c4ccc(C(=O)NC)cc4)cn23)CC1 [compound 215, N-((1-ethylpiperidin-4-yl)methyl)-2-(4-(methylcarbamoyl)phenyl) benzo[d]imidazo[2,1-b]thiazole-7-carboxamide] | − (− ≤3)
14 | CNC(=O)c1ccc(-c2cn3c(n2)sc2cc(C(=O)NCC4(N(C)C)CCCCC4)ccc23)cc1 [compound 216, N-((1-(dimethylamino)cyclohexyl)methyl)-2-(4-(methylcarbamoyl)phenyl) benzo[d]imidazo[2,1-b]thiazole-7-carboxamide] | + (+ >3 and <5)
15 | CNC(=O)c1ccc(-c2cn3c(n2)sc2cc(C(=O)NCCN(C(C)C)C(C)C)ccc23)cc1 [compound 217, N-(2-(diisopropylamino)ethyl)-2-(4-(methylcarbamoyl)phenyl) benzo[d]imidazo[2,1-b]thiazole-7-carboxamide] | + (+ >3 and <5)
16 | CCN(CC)CCCNC(=O)c1ccc2c(c1)sc1nc(-c3ccc(C(NC)C(F)(F)F)cc3)cn12 (stereo not drawn) [compound 218, N-(3-(diethylamino)propyl)-2-(4-(2,2,2-trifluoro-1-(methylamino)ethyl)phenyl) benzo[d]imidazo[2,1-b]thiazole-7-carboxamide] | ++ (++ ≥5 and <6)
17 | CNC(=O)c1ccc(-c2cn3c(n2)sc2cc(C(=O)N[C@H]4COC[C@@H]4O)ccc23)cc1 [compound 219, N-((3S,4R)-4-hydroxytetrahydrofuran-3-yl)-2-(4-(methylcarbamoyl)phenyl) benzo[d]imidazo[2,1-b]thiazole-7-carboxamide] | + (+ >3 and <5)
18 | CNC(=O)c1ccc(-c2cn3c(n2)sc2cc(C(=O)N[C@@H](C)CN)ccc23)cc1 [compound 220, (S)-N-(1-aminopropan-2-yl)-2-(4-(methylcarbamoyl)phenyl) benzo[d]imidazo[2,1-b]thiazole-7-carboxamide] | + (+ >3 and <5)
19 | CNC(=O)c1ccc(-c2cn3c(n2)sc2cc(C(=O)NC(C)Cn4cccn4)ccc23)cc1 (stereo not drawn) [compound 221, N-(1-(1H-pyrazol-1-yl)propan-2-yl)-2-(4-(methylcarbamoyl)phenyl) benzo[d]imidazo[2,1-b]thiazole-7-carboxamide] | + (+ >3 and <5)
20 | CNC(=O)c1ccc(-c2cn3c(n2)sc2cc(C(=O)N[C@H]4CCNC4)ccc23)cc1 [compound 222, (S)-2-(4-(methylcarbamoyl)phenyl)-N-(pyrrolidin-3-yl)benzo[d]imidazo[2,1-b]thiazole-7-carboxamide] | + (+ >3 and <5)
21 | CNC(=O)c1ccc(-c2cn3c(n2)sc2cc(C(=O)NCc4nncn4C4CC4)ccc23)cc1 [compound 223, N-((4-cyclopropyl-4H-1,2,4-triazol-3-yl)methyl)-2-(4-(methylcarbamoyl)phenyl) benzo[d]imidazo[2,1-b]thiazole-7-carboxamide] | − (− ≤3)
22 | CNC(=O)c1ccc(-c2cn3c(n2)sc2cc(C(=O)NC[C@H]4CCCN4)ccc23)cc1 [compound 224, (R)-2-(4-(methylcarbamoyl)phenyl)-N-(pyrrolidin-2-ylmethyl)benzo[d]imidazo[2,1-b]thiazole-7-carboxamide] | − (− ≤3)
23 | CNC(=O)c1ccc(-c2cn3c(n2)sc2cc(C(=O)N[C@H]4CCN(C)C4)ccc23)cc1 [compound 225, (S)-2-(4-(methylcarbamoyl)phenyl)-N-(1-methylpyrrolidin-3-yl)benzo[d]imidazo[2,1-b]thiazole-7-carboxamide] | + (+ >3 and <5)
24 | CNC(=O)c1ccc(-c2cn3c(n2)sc2cc(C(=O)NCC4CC(O)C4)ccc23)cc1 (stereo not drawn) [compound 226, N-((3-hydroxycyclobutyl)methyl)-2-(4-(methylcarbamoyl)phenyl) benzo[d]imidazo[2,1-b]thiazole-7-carboxamide] | − (− ≤3)
25 | CNC(=O)c1ccc(-c2cn3c(n2)sc2cc(C(=O)N[C@H]4CCCNC4)ccc23)cc1 [compound 227, (S)-2-(4-(methylcarbamoyl)phenyl)-N-(piperidin-3-yl)benzo[d] imidazo[2,1-b]thiazole-7-carboxamide] | ++ (++ ≥5 and <6)
26 | CNC(=O)c1ccc(-c2cn3c(n2)sc2cc(C(=O)N[C@H]4CCCCN(C)C4=O)ccc23)cc1 [compound 228, (S)-N-(1-methyl-2-oxoazepan-3-yl)-2-(4-(methylcarbamoyl)phenyl) benzo[d]imidazo[2,1-b]thiazole-7-carboxamide] | + (+ >3 and <5)
27 | CNCCCCNC(=O)c1ccc2c(c1)sc1nc(-c3ccc(C(=O)NC)cc3)cn12 [compound 229, N-(4-(methylamino)butyl)-2-(4-(methylcarbamoyl)phenyl) benzo[d]imidazo[2,1-b]thiazole-7-carboxamide] | + (+ >3 and <5)
28 | CNC(=O)c1ccc(-c2cn3c(n2)sc2cc(C(=O)NCC4CCC5(CCNCC5)O4)ccc23)cc1 (stereo not drawn) [compound 230, N-((1-oxa-8-azaspiro[4.5]decan-2-yl)methyl)-2-(4-(methylcarbamoyl)phenyl) benzo[d]imidazo[2,1-b]thiazole-7-carboxamide] | + (+ >3 and <5)
29 | CNC(=O)c1ccc(-c2cn3c(n2)sc2cc(C(=O)N[C@H]4CN5CCC4CC5)ccc23)cc1 [compound 231, (R)-2-(4-(methylcarbamoyl)phenyl)-N-(quinuelidin-3-yl)benzo[d]imidazo[2,1-b]thiazole-7-carboxamide] | − (− ≤3)
30 | CNC(=O)c1ccc(-c2cn3c(n2)sc2cc(C(=O)NCCCn4nc(C)cc4C)ccc23)cc1 [compound 232, N-(3-(3,5-dimethyl-1H-pyrazol-1-yl)propyl)-2-(4-(methylcarbamoyl)phenyl) benzo[d]imidazo[2,1-b]thiazole-7-carboxamide] | − (− ≤3)

— US12404283B2, “c-MYC mRNA translation modulators and uses thereof in the treatment of cancer” (Anima Biotech Inc., priority 2022, dated 2025)
